Assay results: patent EP0720987A1, “Acylated pseudopeptides containing trifluoromethyl substituted 2-azabicyclooctane” (BAYER AG, priority 1995, dated 1996)

Tests used:
[1] = molecular target: T1, HIV-1-Protease (Human immunodeficiency virus type 1 group M subtype B, UniProt P04585); assay: HIV-specific protease enzyme test (cleavage of synthetic peptide by purified HIV protease, RP-HPLC analysis); assay type: biochemical; details: synthetic peptide substrate imitating Gag precursor cleavage site; for IC50: read-out: HIV-1-Protease-Inhibition IC50
T1 construct: Gereinigte HIV-Protease wurde mit synthetischem Peptid
Excerpt: Es wurde überraschend gefunden, daß die Verbindungen der allgemeinen Formel (I) eine außerordentlich starke Wirkung gegen Retroviren besitzen. Dies wird mit einem HIV-spezifischen Protease-Enzymtest belegt.
Die Ergebnisse der unten aufgeführten Beispiele wurden nach dem in den folgenden Literaturangaben [vgl. Hansen, J., Billich, S., Schulze, T., Sukrow, S. and Mölling, K. (1988), EMBO Journal, Vol, 7, No. 6, pp. 1785 - 1791] beschriebenen HIV-Testsystem ermittelt: Gereinigte HIV-Protease wurde mit synthetischem Peptid, das eine Schnittstelle im Gag-Precursor-Protein imitiert und eine in vivo-Spaltstelle der HIV-Protease darstellt, inkubiert. Die entstandenen Spaltprodukte des synthetischen Peptids wurden über Reverse Phase High Performance Liquid Chromatography (RP-HPLC) analysiert. Die angegebenen IC50Werte beziehen sich auf die Substanzkonzentration, die unter den oben aufgeführten Testbedingungen eine 50%ige Hemmung der Protease-Aktivität bewirkt.

[2] = tested on: HIV; assay: HIV infection in cell culture (PBL), inhibition of virus-induced syncytia formation; assay type: cell-based; details: Human immunodeficiency virus 1, Lymphocyte, 72 h; HIV-infected normal human blood lymphocytes (PBL's); 50% suppression of virus-induced syncytia, read microscopically day 3 to 6 after infection
Protocol: Außerdem zeigten die erfindungsgemäßen Verbindungen Wirkung in Lentivirus infizierten Zellkulturen. Dies konnte am Beispiel des HIV-Virus gezeigt werden.
HIV-Infektion in Zellkultur
Der HIV-Test wurde mit geringen Modifikationen nach der Methode von Pauwels et al. [vgl. Journal of Virological Methods 20, (1988), 309-321] durchgeführt.
Normale menschliche Blutlymphozyten (PBL's) wurden über Ficoll-Hypaque angereichert und im RPMI 1640, 20% fötales Kälberserum mit Phythaemagglutinin (90 µg/ml) und Interleukin-2 (40 U/ml) stimuliert. Zur Infektion mit dem infektiösen HIV wurden PBL's pelletiert und das Zellpellet wurde anschließend in 1 ml HIV-Virusadsorptionslösung suspendiert und 1 Stunde bei 37°C inkubiert.
Die Virusadsorptionslösung wurde zentrifugiert und das infizierte Zellpellet in Wachstumsmedium aufgenommen, so daß 1 x 10^5 Zellen pro ml eingestellt waren. Die derart infizierten Zellen wurden zu 1 x 10^4 Zellen/Napf in die Näpfe von 96er Mikrotiterplatten pipettiert.
Die erste vertikale Reihe der Mikrotiterplatte enthielt nur Wachstumsmedium und Zellen, die nicht infiziert, aber ansonsten genauso wie oben beschrieben, behandelt worden waren (Zellkontrolle). Die zweite vertikale Reihe der Mikrotiterplatte erhielt nur HIV-infizierte Zellen (Viruskontrolle) in Wachstumsmedium. Die übrigen Näpfe enthielten die erfindungsgemäßen Verbindungen in unterschiedlichen Konzentrationen, ausgehend von den Näpfen der 3. vertikalen Reihe der Mikrotiterplatte, von der die Prüfsubstanzen in 2er Schritten 2^10fach verdünnt wurden.
Die Testansätze wurden so lange bei 37°C inkubiert, bis in der unbehandelten Viruskontrolle die für das HIV typische Syncytienbildung auftrat (zwischen Tag 3 und 6 nach Infektion), die dann mikroskopisch ausgewertet wurde. In der unbehandelten Viruskontrolle resultierten unter diesen Testbedingungen etwa 20 Syncytien, währen die unbehandelte Zellkontrolle keine Syncytien aufwies. […]

Row | Structure (SMILES) | IC50 [1] | IC50 [2] | HIV-1-Protease-Inhibition IC95 [1]
1 | CCOC(=O)CCC(=O)O[C@H](CN1[C@H](C(F)(F)F)C[C@@H]2CCC[C@@H]21)[C@H](Cc1ccccc1)NC(=O)[C@H](CC(N)=O)NC(=O)c1ccc2ccccc2n1 [Beispiel 1, (2R,3S)-3-(Chinolin-2-yl-L-asparaginyl)-amino-1-[(S,S,S)-3-trifluormethyl-2-azabicylco[3.3.0]octan-2-yl}-2-(3-ethoxycarbonyl)propionyl-4-phenylbutan] | 320 µM | 0.108 µM | –
2 | CC(=O)O[C@H](CN1[C@H](C(F)(F)F)C[C@@H]2CCC[C@@H]21)[C@H](Cc1ccccc1)NC(=O)[C@H](CC(N)=O)NC(=O)c1ccc2ccccc2n1 [Beispiel 2] | 1.1 µM | 0.612 µM | 3,3 x 10^-5 Mol/l
3 | CC(=O)O[C@H](CN1[C@H](C(F)(F)F)C[C@@H]2CCC[C@@H]21)[C@H](Cc1ccccc1)NC(=O)[C@H](CC(N)=O)NC(=O)c1cnc2cc(C)c(C)cc2n1 [Beispiel 3] | 0.0015 µM | 0.12 µM | 2,5 x 10^-8 Mol/l
